# Measured values from patent publication US7528252B2, “Derivatives of triazoly-imidazopyridine useful as ligands of the adenosine A2a receptor and their use as medicaments” (Sigma-Tau Industrie Farmaceutiche Riunite S.p.A., priority 2002, dated 2009).
# Where two headings read alike, the source gives them in different places.
# What was measured:
# human A2b receptor = molecular target: T1, human A2b receptor (Homo sapiens, UniProt P29275); test: Affinity towards the adenosine A2b receptor ([3H]-DPCPX binding, HEK 293 membranes); conditions: read-out: A2b Ki (nM) ± sd
# T1 construct: expressed in transfected cells; host or cells: HEK 293
# T1 sequence (P29275 1-332): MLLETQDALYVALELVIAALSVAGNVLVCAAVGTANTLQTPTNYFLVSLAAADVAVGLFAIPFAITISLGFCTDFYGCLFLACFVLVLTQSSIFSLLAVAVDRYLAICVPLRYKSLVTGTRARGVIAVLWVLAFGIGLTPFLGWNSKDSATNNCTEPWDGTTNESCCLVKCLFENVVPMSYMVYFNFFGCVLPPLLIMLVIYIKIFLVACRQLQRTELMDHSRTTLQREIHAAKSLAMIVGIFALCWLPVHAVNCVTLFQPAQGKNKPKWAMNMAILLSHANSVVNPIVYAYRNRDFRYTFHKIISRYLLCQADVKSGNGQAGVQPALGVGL
# Description: The interactive capacity of each product towards the adenosine A2b receptor was evaluated using membranes from HEK 293 cells stably expressing the human A2b receptor subtype exclusively.
# Non-specific binding was measured in the presence of NECA (50 μM).
# In binding studies for each compound, eight different concentrations (from 10^−5 M to 10^−12 M) were evaluated in order to obtain competition curves. By means of non-linear regression analysis of the competition curves, the IC50 values, which express the binding affinity of each product, were determined. Using the Cheng Prusoff equation (Ki=IC50/1+(L/Kd)) Ki values were calculated through which the affinity of each product studied, for the receptor investigated, is expressed.
# NMDA = test: Receptor binding study, NMDA; conditions: reference compound
# CD1 male mice [1] = test: Effects on spontaneous motor activity in mice; type: in vivo; conditions: for Horizontal activity / Total distance / Vertical activity: mean ± s.e.
# Description: For this study, type CD1 male mice (n=8) were used. The effects of the products under study and of the reference compounds were evaluated using an apparatus consisting of a Plexiglas cage (40 cm×40 cm) surrounded by a series of photocells which monitor the movements of the animals placed inside, connected a computerised system, through which, the signals are collected and later elaborated.
# Tests were carried out, after endoperitoneal administration of the products. 15 minutes after treatment, the treated animals, alternating with the controls, were placed inside the cage so as to record their spontaneous movements over a total period of 45 minutes broken down into two observation intervals (15′-45′ and 45′-60′, with respect to the time after treatment).
# To examine the possible effects of the compounds studied on motor activity, the following parameters were considered: horizontal activity, vertical activity: total distance.
# Except for CGS 21680 (reference compound, described in EP 0 277 917, Ciba-Geigy) which was dissolved in 0.9% NaCl, the products studied were solubilised in DMSO and then diluted in Cremofor EL and 0.9% NaCl (final concentrations: DMSO 15%, Cremofor EL 15%, NaCl 0.9%.
# M5 = molecular target: T2, M5 (Homo sapiens, UniProt P08912); test: Receptor binding study, M5; conditions: reference compound
# T2 sequence (P08912 1-532): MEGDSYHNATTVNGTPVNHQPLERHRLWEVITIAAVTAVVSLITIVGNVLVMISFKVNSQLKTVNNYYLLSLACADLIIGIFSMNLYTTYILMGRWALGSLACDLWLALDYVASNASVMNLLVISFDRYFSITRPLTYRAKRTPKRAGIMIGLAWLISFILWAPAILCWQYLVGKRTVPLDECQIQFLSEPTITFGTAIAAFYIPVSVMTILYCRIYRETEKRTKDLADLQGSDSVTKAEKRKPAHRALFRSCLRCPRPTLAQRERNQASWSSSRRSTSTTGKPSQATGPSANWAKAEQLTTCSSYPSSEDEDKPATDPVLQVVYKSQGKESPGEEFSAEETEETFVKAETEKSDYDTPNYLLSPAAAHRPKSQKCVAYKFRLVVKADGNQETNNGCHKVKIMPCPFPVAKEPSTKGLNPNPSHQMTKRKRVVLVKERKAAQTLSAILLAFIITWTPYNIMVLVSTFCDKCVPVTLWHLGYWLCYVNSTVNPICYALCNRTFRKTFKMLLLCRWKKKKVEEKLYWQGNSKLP
# Cholinetransporter = molecular target: T3, Cholinetransporter (Homo sapiens, UniProt Q9GZV3); test: Receptor binding study, Choline transporter; conditions: reference compound
# T3 sequence (Q9GZV3 1-580): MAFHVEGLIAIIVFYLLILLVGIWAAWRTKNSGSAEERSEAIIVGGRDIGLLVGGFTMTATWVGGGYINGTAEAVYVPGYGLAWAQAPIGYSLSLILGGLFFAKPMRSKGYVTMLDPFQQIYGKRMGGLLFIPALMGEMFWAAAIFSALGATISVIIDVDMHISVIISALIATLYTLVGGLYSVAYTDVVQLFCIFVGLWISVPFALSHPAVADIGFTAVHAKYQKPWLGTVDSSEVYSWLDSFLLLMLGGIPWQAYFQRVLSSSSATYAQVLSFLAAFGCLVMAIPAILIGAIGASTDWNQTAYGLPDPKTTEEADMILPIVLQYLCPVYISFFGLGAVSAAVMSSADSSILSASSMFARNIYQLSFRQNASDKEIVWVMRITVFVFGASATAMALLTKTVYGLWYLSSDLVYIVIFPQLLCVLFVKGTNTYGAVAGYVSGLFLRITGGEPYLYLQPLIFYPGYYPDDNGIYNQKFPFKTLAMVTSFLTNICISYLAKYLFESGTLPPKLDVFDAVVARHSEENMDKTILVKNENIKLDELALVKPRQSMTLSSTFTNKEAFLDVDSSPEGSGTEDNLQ
# PCP = test: Receptor binding study, PCP; conditions: reference compound
# ADOtransporter = test: Receptor binding study, ADO transporter; conditions: reference compound
# [2] = molecular target: T4, human A1 subtype adenosine receptor (Homo sapiens, UniProt P30542); test: Affinity towards the adenosine A1 receptor ([3H]-DPCPX binding, CHO-K1 membranes); conditions: read-out: A1 Ki (nM) ± sd
# T4 construct: expressed in transfected cells; host or cells: CHO-K1
# T4 sequence (P30542 1-326): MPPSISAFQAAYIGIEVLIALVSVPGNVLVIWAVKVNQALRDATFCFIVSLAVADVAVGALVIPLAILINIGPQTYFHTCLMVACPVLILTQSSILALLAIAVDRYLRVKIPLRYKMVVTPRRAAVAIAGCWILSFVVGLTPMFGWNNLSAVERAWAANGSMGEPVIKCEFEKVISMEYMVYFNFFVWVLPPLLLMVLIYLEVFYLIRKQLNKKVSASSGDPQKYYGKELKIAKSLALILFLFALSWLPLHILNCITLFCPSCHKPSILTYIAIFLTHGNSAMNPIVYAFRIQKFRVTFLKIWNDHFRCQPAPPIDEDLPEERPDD
# human A2a receptor [3] = molecular target: T5, human A2a receptor (Homo sapiens, UniProt P29274); conditions: for KiA1/KiA2a: ratio of receptor affinity (selectivity); for Ki: read-out: A2a Ki (nM) ± sd, human A2a, HEK 293 membranes, [3H]-CGS21680
# CD1 male mice [4] = test: Capacity of the products to induce catalepsy in mice; type: in vivo; conditions: endoperitoneal, 30 minutes prior to the test
# Description: 10 CD1 male mice were used per group. For this test, a steel bar, 10 cm long, was placed at a height of 4.5 cm above the support surface. Onto this, were placed the front legs of the animals. The presence of catalepsy was determined by measuring the time (in seconds) the animal remained in the posture placed. Later, this parameter was placed relatively, on a scale of rising values (0 to 5) through which, the degree of catalepsy determined in both control animals and in these subjected to treatment with the substances under test could be proportionately expressed.
# The reference products and these in this study were administered endoperitoneally, in a volume of 10 ml/kg, 30 minutes prior to the test.
# Except for CGS 21680 (reference compound) which was dissolved in 0.9% NaCl, the products in the study and the control antagonist ZM 241385 were solubilised in DMSO and then diluted in Cremofor EL and 0.9% NaCl (final concentrations: DMSO 15%, Cremofor EL 15%, NaCl 0.9%).
# human A2a receptor [5] = molecular target: T5, human A2a receptor; test: biochemical
# P2Y = test: Receptor binding study, P2Y; conditions: reference compound
# mice = test: Forced swim test in mice; type: in vivo; conditions: 60 minutes before the test; 4 minutes of testing period
# Description: Mice were dropped individually into glass cylinders (height: 25 cm, internal diameter 10 cm) containing 10 cm water, maintained at 23° C. The immobility time (sec) was measured during 4 minutes of test. A mouse was judged to be immobile when it remained floating in the water, making only the necessary movements to keep its head above water. Test compound ST 1535 was administered orally to mice, 60 minutes before the test.
# GABAa = test: Receptor binding study, GABAa; conditions: reference compound
# P2X = test: Receptor binding study, P2X; conditions: reference compound
# [6] = 0.5 mg/kg endoperitoneal, interval 15′-45′ from treatment
# [7] = 0.5 mg/kg endoperitoneal, interval 45′-60′ from treatment
# [8] = 2.5 mg/kg endoperitoneal, interval 15′-45′ from treatment
# [9] = 2.5 mg/kg endoperitoneal, interval 45′-60′ from treatment
# [10] = 5 mg/kg endoperitoneal, interval 15′-45′ from treatment
# [11] = 5 mg/kg endoperitoneal, interval 45′-60′ from treatment
# [12] = 10 mg/kg endoperitoneal, interval 15′-45′ from treatment
# [13] = 10 mg/kg endoperitoneal, interval 45′-60′ from treatment
# T5 sequence (P29274 whole entry): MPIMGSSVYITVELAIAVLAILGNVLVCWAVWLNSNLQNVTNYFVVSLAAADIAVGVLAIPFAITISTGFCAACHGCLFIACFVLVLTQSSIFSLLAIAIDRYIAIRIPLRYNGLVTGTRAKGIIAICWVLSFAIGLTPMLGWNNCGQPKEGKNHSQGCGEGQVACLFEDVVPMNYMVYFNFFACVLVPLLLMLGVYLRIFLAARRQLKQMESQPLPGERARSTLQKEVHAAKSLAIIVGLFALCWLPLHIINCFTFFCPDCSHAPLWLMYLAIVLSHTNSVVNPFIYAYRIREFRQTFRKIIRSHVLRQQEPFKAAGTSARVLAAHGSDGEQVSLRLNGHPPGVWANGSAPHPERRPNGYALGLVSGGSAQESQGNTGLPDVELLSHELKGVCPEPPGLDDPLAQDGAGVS
structure (smiles),measurement,setting,value
"O=c1nc2[nH]c3ccccc3nc-2c(=O)[nH]1 [Alloxazine, reference compound]",Ki,human A2b receptor,3.8 ± 2.1 nM
"O=C(O)[C@@H]1C[C@H](CP(=O)(O)O)CCN1 [CGS 19755, reference compound]",IC50,NMDA,967 nM
"CCNC(=O)[C@H]1O[C@@H](n2cnc3c(N)nc(NCCc4ccc(CCC(=O)O)cc4)nc32)[C@H](O)[C@@H]1O [CGS 21680, reference compound]",Horizontal activity,CD1 male mice [1]; [6],1608 ± 328
same,Total distance,CD1 male mice [1]; [6],504 ± 106
same,Vertical activity,CD1 male mice [1]; [6],27 ± 11
same,Horizontal activity,CD1 male mice [1]; [7],471 ± 254
same,Total distance,CD1 male mice [1]; [7],121 ± 73
same,Vertical activity,CD1 male mice [1]; [7],10 ± 1
"C[N+]1(C)CCC(OC(=O)C(c2ccccc2)c2ccccc2)CC1 [Compound 4-DAMP, reference compound]",IC50,M5,2 nM
"C[N+]1(C)CCOC(O)(c2ccc(-c3ccc(C4(O)C[N+](C)(C)CCO4)cc3)cc2)C1 (stereo not drawn) [Hemicholinium-3, reference compound]",IC50,Cholinetransporter,12 nM
"C[C@]12N[C@H](Cc3ccccc31)c1ccccc12 [MK-801, reference compound]",IC50,PCP,2 nM
"O=[N+]([O-])c1ccc(CSc2ncnc3c2ncn3[C@@H]2O[C@H](CO)[C@@H](O)[C@H]2O)cc1 [NBTI, reference compound]",IC50,ADOtransporter,0.3 nM
"Cn1c(-n2nccn2)nc2c(N)ncnc21 [ST 1490, 6-amino-9-methyl-8-(triazol-2-yl)-9(H)-purine]",Ki,[2],0.43 nM
same,KiA1/KiA2a,human A2a receptor [3],0.009
same,Ki,human A2a receptor [3],46 nM
"Cc1nc(N)c2nc(-n3nccn3)n(C)c2n1 [ST 1491, 6-amino-2,9-dimethyl-8-(triazol-2-yl)-9(H)-purine]",Ki,[2],10 ± 1.4 nM
same,KiA1/KiA2a,human A2a receptor [3],0.15
same,Ki,human A2a receptor [3],70 ± 15 nM
"Cn1c(-n2nccn2)nc2c(N)nc(CCc3ccccc3)nc21 [ST 1537, 9-methyl-2-(2-phenylethyl)-8-(2H-1,2,3-triazol-2-yl)-9H-purine-6-ylamine]",Horizontal activity,CD1 male mice [1]; [8],7494 ± 565
same,Total distance,CD1 male mice [1]; [8],1676 ± 204
same,Vertical activity,CD1 male mice [1]; [8],590 ± 78
same,Horizontal activity,CD1 male mice [1]; [9],3133 ± 250
same,Total distance,CD1 male mice [1]; [9],677 ± 105
same,Vertical activity,CD1 male mice [1]; [9],210 ± 17
same,Horizontal activity,CD1 male mice [1]; [10],7203 ± 264
same,Total distance,CD1 male mice [1]; [10],1503 ± 116
same,Vertical activity,CD1 male mice [1]; [10],498 ± 77
same,Horizontal activity,CD1 male mice [1]; [11],2844 ± 299
same,Total distance,CD1 male mice [1]; [11],532 ± 95
same,Vertical activity,CD1 male mice [1]; [11],363 ± 91
same,Horizontal activity,CD1 male mice [1]; [12],8242 ± 847
same,Total distance,CD1 male mice [1]; [12],2707 ± 950
same,Vertical activity,CD1 male mice [1]; [12],528 ± 126
same,Horizontal activity,CD1 male mice [1]; [13],3874 ± 295
same,Total distance,CD1 male mice [1]; [13],843 ± 149
same,Vertical activity,CD1 male mice [1]; [13],276 ± 57
same,effect on motor activity in mice (in words),CD1 male mice [1]; independently of the dosage administered (2.5-10 mg/kg),induces a clear increase in motor activity
same,appearance of catalepsy in mice (FIG. 1),CD1 male mice [4],none of them brought about the appearance of catalepsy in mice
same,Ki,[2],80 ± 13 nM
same,Ki,human A2b receptor,2330 ± 588 nM
"Cn1c(-n2nccn2)nc2c(N)nccc21 [ST 1680, 4-amino-1-methyl-2-(triazol-2-yl)-1(H)-imidazo[4,5-c]pyridino triflate]",Ki,human A2a receptor [5],97 ± 23 nM
same,Ki,[2],1560 ± 252 nM
same,Ki,human A2b receptor,926 ± 55 nM
same,KiA1/KiA2a,human A2a receptor [3],16
"Nc1ncnc2c1ncn2[C@H]1C[C@H](O)[C@@H](COP(O)(=S)OP(=O)(O)OP(=O)(O)O)O1 (stereo partly drawn) [dATPα S, reference compound]",IC50,P2Y,22 nM
"CN(C)CCCN1c2ccccc2CCc2ccccc21 [imipramine, reference compound]","time of immobility, forced swim test (FIG. 5)",mice,in a manner similar to that observed for the antidepressive drug Imipramine
"NCc1cc(=O)[nH]o1 [muscimol, reference compound]",IC50,GABAa,16 nM
"Nc1ncnc2c1ncn2[C@@H]1O[C@H](COP(=O)(O)CP(=O)(O)OP(=O)(O)O)[C@@H](O)[C@H]1O [α,β-MeATP, reference compound]",IC50,P2X,14 nM
